Source: US8940766B2, “Methods for preventing and/or treating lysosomal storage disorders” (Amicus Therapeutics, Inc., priority 2009, dated 2015)

Target: T1, GCase (Homo sapiens, UniProt P04062)
T1 sequence (P04062 40-536): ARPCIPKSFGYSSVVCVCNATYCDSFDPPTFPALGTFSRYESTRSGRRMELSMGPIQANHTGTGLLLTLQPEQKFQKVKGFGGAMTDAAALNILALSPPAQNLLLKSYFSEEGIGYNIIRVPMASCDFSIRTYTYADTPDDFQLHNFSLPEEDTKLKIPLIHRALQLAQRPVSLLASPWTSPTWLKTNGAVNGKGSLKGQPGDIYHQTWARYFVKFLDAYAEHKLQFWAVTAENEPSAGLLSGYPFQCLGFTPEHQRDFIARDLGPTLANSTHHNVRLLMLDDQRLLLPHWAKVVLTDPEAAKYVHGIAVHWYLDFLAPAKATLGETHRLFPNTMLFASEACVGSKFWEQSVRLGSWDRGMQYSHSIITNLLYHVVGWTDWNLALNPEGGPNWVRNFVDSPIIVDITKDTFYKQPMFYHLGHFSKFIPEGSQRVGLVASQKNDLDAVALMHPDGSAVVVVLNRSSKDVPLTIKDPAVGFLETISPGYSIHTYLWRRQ
Experiment: Concentration-dependent increase in GCase activity (EC50, Emax)
Type: cell-based
Settings: result in words

SMILES: O[C@@H]1[C@@H](CCl)CNC[C@H]1O [Compound B, (3R,4R,5S)-5-(chloromethyl)piperidine-3,4-diol]
- effect on GCase activity: concentration-dependent increase in GCase activity
- enhancement of enzyme activity compared to IFG-tartrate: enhanced enzyme activity to the same maximum level at much lower concentration
